Results: patent publication EP4483954A1 (Masarykova Univerzita, priority 2023, dated 2025)

Assays:
Assay type in all cases: biochemical
[1] = target: T1, CDKL3(h) (Homo sapiens, UniProt Q8IVW4); assay: radiometric kinase assay (KinaseProfiler, Eurofins), CDKL3; conditions: in vitro radiometric kinase assay, tested at 1 nM to 10 000 nM, no pre-incubation; read-out: inhibitory activities (IC50 values) CDKL3
T1 construct: purchased Eurofins (KinaseProfiler)
Protocol: (§1) The compounds were profiled in the radiometric assays (KinaseProfiler, Eurofins).
(§2) Briefly, kinases were diluted in the buffer shown below prior to addition to the reaction mix: • CDKL3, TAF1L: 20 mM Tris/HCl pH 8.5, 0.2 mM EDTA, 0.1% β-mercaptoethanol, 0.01% Brij-35, 5% glycerol, 1 mg/ml BSA; • Haspin: 15 mM MOPS, 0.75 mM EDTA, 0.0075% Brij-35, 3.75% Glycerol, 150 mM NaCl, 0.1% β-mercaptoethanol, 1 mg/mLBSA; • CDKL4, CLK2, PIM1, TRB2: […], 1 mM EDTA, 0.01% Brij-35, 5% Glycerol, 0.1% β-mercaptoethanol, 1 mg/mL BSA.
(§3) All compounds were prepared to 50x final assay concentration in 100% DMSO. This working stock of the compound was added to the assay well as the first component in the reaction, followed by the remaining components as detailed in the general assay protocols below. There was no pre-incubation step between the compound and the kinase prior to initiation of the reaction.
(§4) CDKL3(h) was incubated with 8 mM MOPS pH 7.0, 0.2 mM EDTA, 250 µM RRRFRPASPLRGPPK (SEQ ID NO. 1), 10 mM magnesium acetate and γ-^33P-ATP (specific activity and concentration as required). The reaction was initiated by the addition of the Mg/ATP mix. After incubation for 120 minutes at room temperature, the reaction was stopped by the addition of phosphoric acid to a concentration of 0.5%. An aliquot of the stopped reaction was spotted onto a filter and washed four times for 4 minutes in 0.425% phosphoric acid and once in methanol prior to drying and scintillation counting.
(§5) Kinase activity data were expressed as the percent remaining kinase activity in tested samples compared to the vehicle (DMSO) reactions. The compounds were tested at the following concentrations: 1 nM, 3 nM, 10 nM, 30 nM, 100 nM, 300 nM, 1000 nM, 3000 nM, and 10 000 nM; IC50 values and curve fits were then obtained.

[2] = target: T2, CDKL4(h) (Homo sapiens, UniProt Q5MAI5); assay: radiometric kinase assay (KinaseProfiler, Eurofins), CDKL4; conditions: in vitro radiometric kinase assay, tested at 1 nM to 10 000 nM, no pre-incubation; read-out: inhibitory activities (IC50 values) CDKL4
T2 construct: purchased Eurofins (KinaseProfiler)
Protocol: as §1, §2, §3
as §4, with “CDKL4(h)” for “CDKL3(h)”
as §5

[3] = target: T3, Haspin (h) (Homo sapiens, UniProt Q8TF76); assay: radiometric kinase assay (KinaseProfiler, Eurofins), Haspin; conditions: in vitro radiometric kinase assay, tested at 1 nM to 10 000 nM, no pre-incubation; read-out: inhibitory activities (IC50 values) Haspin
T3 construct: purchased Eurofins (KinaseProfiler)
T3 sequence (Q8TF76 1-798): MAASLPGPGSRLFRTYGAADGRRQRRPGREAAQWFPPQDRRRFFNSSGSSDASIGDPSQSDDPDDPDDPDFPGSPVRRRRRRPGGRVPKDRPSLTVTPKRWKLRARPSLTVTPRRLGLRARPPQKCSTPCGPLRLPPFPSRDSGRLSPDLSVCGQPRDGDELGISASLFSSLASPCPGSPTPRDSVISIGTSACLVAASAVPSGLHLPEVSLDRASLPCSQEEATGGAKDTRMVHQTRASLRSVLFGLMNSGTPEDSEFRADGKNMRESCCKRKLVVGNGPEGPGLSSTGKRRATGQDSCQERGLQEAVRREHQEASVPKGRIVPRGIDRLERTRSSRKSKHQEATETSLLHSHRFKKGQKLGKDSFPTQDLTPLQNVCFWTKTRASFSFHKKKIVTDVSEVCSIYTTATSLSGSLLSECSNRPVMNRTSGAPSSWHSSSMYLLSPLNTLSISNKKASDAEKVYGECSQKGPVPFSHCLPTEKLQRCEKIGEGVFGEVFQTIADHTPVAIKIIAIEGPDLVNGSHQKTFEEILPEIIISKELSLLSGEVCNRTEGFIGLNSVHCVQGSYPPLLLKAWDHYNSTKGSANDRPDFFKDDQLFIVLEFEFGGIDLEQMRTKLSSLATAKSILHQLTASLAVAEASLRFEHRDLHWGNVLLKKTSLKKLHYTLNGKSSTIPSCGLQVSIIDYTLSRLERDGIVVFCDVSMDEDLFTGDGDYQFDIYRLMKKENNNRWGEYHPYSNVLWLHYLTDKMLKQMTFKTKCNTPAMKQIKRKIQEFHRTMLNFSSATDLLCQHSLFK
Summary of the method: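 Human Haspin in 8 mM MOPS pH 7.0 with 500 µM RARTLSFAEPG, 10 mM Mg acetate and γ-33P-ATP; compound added without preincubation. Reaction ran 40 min at room temperature, then filter-bound 33P was counted. Nine concentrations from 1 to 10 000 nM gave % remaining activity versus DMSO, and IC50 came from curve fit.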

[4] = target: T4, PIM1 (h) (Homo sapiens, UniProt P11309); assay: radiometric kinase assay (KinaseProfiler, Eurofins), PIM1; conditions: in vitro radiometric kinase assay, tested at 1 nM to 10 000 nM, no pre-incubation; read-out: inhibitory activities (IC50 values) PIM1
T4 construct: purchased Eurofins (KinaseProfiler)
Protocol: as §1, §2, §3
PIM1 (h) was incubated with 8 mM MOPS pH 7.0, 0.2 mM EDTA, 100 µM KKRNRTLTV (SEQ ID NO. 4), 10 mM magnesium acetate and γ-^33P-ATP (specific activity and concentration as required). The reaction was initiated by the addition of the Mg/ATP mix. After incubation for 40 minutes at room temperature, the reaction was stopped by the addition of phosphoric acid to a concentration of 0.5%. An aliquot of the reaction was then spotted onto a filter and washed four times for 4 minutes in 0.425% phosphoric acid and once in methanol prior to drying and scintillation counting.
as §5

T4 sequence (P11309 whole entry): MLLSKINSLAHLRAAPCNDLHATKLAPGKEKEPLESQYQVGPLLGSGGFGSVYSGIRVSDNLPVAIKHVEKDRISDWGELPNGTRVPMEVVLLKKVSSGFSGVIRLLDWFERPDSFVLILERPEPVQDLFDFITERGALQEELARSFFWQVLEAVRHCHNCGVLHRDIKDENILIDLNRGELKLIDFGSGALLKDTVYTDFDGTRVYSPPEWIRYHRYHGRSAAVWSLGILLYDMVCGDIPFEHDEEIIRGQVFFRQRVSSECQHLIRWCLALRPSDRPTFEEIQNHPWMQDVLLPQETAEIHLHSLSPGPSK
T2 sequence (Q5MAI5 whole entry): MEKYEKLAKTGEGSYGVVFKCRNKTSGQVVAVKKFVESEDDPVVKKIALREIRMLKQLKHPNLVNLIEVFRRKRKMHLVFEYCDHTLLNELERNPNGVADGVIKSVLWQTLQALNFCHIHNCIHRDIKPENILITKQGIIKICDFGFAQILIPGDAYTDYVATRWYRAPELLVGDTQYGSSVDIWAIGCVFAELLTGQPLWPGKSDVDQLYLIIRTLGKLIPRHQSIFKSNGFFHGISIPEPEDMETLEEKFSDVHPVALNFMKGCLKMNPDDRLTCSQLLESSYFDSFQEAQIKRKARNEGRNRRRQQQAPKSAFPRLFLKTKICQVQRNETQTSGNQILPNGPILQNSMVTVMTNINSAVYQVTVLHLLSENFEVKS
T1 sequence (Q8IVW4 whole entry): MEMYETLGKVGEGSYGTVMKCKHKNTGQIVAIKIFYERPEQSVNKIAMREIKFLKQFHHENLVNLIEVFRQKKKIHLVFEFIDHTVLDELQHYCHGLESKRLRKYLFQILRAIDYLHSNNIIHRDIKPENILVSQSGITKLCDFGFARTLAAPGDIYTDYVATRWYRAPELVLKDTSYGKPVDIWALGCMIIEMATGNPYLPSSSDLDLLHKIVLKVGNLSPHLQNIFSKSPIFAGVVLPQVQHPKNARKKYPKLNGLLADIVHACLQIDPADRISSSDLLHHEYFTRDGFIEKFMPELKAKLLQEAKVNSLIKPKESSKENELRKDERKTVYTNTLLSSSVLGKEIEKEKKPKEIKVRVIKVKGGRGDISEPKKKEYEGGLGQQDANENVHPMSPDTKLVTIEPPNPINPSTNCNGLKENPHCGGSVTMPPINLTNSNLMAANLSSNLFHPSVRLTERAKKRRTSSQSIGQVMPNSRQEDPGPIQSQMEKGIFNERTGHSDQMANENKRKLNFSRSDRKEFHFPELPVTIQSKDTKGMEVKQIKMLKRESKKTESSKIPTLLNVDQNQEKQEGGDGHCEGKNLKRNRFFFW

Cn1ccc(-c2ccc3scc(-c4ccncc4)c3n2)n1 [Preparative Example 86, 5-(1-methyl-1H-pyrazol-3-yl)-3-(pyridin-4-yl)thieno[3,2-b]pyridine]
IC50 [1]: 0.5 to 3 µM | IC50 [2]: 3 to 10 µM | IC50 [3]: 0.02 to 0.099 µM | IC50 [4]: 3 to 10 µM

Cc1cc2scc(-c3ccncc3)c2nc1-c1cnn(C)c1 [Preparative Example 150, 6-methyl-5-(1-methyl-1H-pyrazol-4-yl)-3-(pyridin-4-yl)thieno[3,2-b]pyridine]
IC50 [1]: 0.5 to 3 µM | IC50 [2]: 0.5 to 3 µM | IC50 [3]: 0.5 to 3 µM | IC50 [4]: 0.5 to 3 µM

Cc1cc(-c2cnn(C)c2)nc2c(-c3ccncc3)csc12 [Preparative Example 157, 7-methyl-5-(1-methyl-1H-pyrazol-4-yl)-3-(pyridin-4-yl)thieno[3,2-b]pyridine]
IC50 [1]: 0.5 to 3 µM | IC50 [2]: 0.5 to 3 µM | IC50 [3]: 0.5 to 3 µM | IC50 [4]: 3 to 10 µM

Cn1cc(-c2ccc3scc(C(O)c4ccccc4)c3n2)cn1 (centres unmarked) [Preparative Example 74]
IC50 [1]: 0.1 to 0.499 µM | IC50 [2]: 0.1 to 0.499 µM | IC50 [3]: 3 to 10 µM | IC50 [4]: 0.5 to 3 µM

Cc1cnccc1-c1csc2ccc(-c3cnn(C)c3)nc12 [Preparative Example 32, 5-(1-methyl-1H-pyrazol-4-yl)-3-(3-methylpyridin-4-yl)thieno[3,2-b]pyridine]
IC50 [1]: 0.5 to 3 µM | IC50 [2]: 0.5 to 3 µM | IC50 [3]: 3 to 10 µM | IC50 [4]: 0.5 to 3 µM

c1cc(-c2csc3ccc(Nc4cc[nH]n4)nc23)ccn1 [Preparative Example 101, N-(1H-pyrazol-3-yl)-3-(pyridin-4-yl)thieno[3,2-b]pyridin-5-amine]
IC50 [1]: 0.02 to 0.099 µM | IC50 [2]: 0.1 to 0.499 µM | IC50 [3]: 0.02 to 0.099 µM | IC50 [4]: 0.5 to 3 µM

Cn1cc(-c2ccc3scc(-c4ccncc4F)c3n2)cn1 [Preparative Example 36, 3-(3-fluoropyridin-4-yl)-5-(1-methyl-1H-pyrazol-4-yl)thieno[3,2-b]pyridine]
IC50 [1]: 0.1 to 0.499 µM | IC50 [2]: 0.1 to 0.499 µM | IC50 [3]: 0.1 to 0.499 µM | IC50 [4]: 0.1 to 0.499 µM

CC(C)n1cc(-c2ccc3scc(-c4ccncc4)c3n2)cn1 [Preparative Example 79, 5-(1-isopropyl-1H-pyrazol-4-yl)-3-(pyridin-4-yl)thieno[3,2-b]pyridine]
IC50 [1]: 3 to 10 µM | IC50 [2]: 3 to 10 µM | IC50 [3]: 0.5 to 3 µM | IC50 [4]: 3 to 10 µM

Cn1cc(-c2ccc3scc(-c4ccncc4)c3n2)c(N)n1 [Preparative Example 84, 1-methyl-4-(3-(pyridin-4-yl)thieno[3,2-b]pyridin-5-yl)-1H-pyrazol-3-amine]
IC50 [1]: 0.5 to 3 µM | IC50 [2]: 0.5 to 3 µM | IC50 [3]: 3 to 10 µM | IC50 [4]: 3 to 10 µM

Cn1cc(-c2ccc3scc(C(=O)c4ccccc4)c3n2)cn1 [Preparative Example 73, (5-(1-methyl-1H-pyrazol-4-yl)thieno[3,2-b]pyridin-3-yl)(phenyl)-methanone]
IC50 [1]: 3 to 10 µM | IC50 [2]: 3 to 10 µM | IC50 [3]: 3 to 10 µM | IC50 [4]: 3 to 10 µM

Cn1cncc1-c1ccc2scc(-c3ccncc3)c2n1 [Preparative Example 91, 5-(1-methyl-1H-imidazol-5-yl)-3-(pyridin-4-yl)thieno[3,2-b]pyridine]
IC50 [1]: 0.5 to 3 µM | IC50 [2]: 0.5 to 3 µM | IC50 [3]: 0.02 to 0.099 µM | IC50 [4]: 0.1 to 0.499 µM

Cn1ncc(-c2ccc3scc(-c4ccncc4)c3n2)n1 [Preparative Example 94, 5-(2-methyl-2H-1,2,3-triazol-4-yl)-3-(pyridin-4-yl)thieno[3,2-b]pyridine]
IC50 [1]: 0.5 to 3 µM | IC50 [2]: 0.5 to 3 µM | IC50 [3]: 0.5 to 3 µM | IC50 [4]: 3 to 10 µM

Cn1cc(-c2ccc3scc(-c4cccnc4)c3n2)cn1 [Preparative Example 11, 5-(1-methyl-1H-pyrazol-4-yl)-3-(pyridin-3-yl)thieno[3,2-b]pyridine]
IC50 [1]: 0.1 to 0.499 µM | IC50 [2]: 0.5 to 3 µM | IC50 [3]: 0.5 to 3 µM | IC50 [4]: 0.5 to 3 µM

Cn1cc(-c2ccc3scc(-c4cncs4)c3n2)cn1 [Preparative Example 69, 5-(1-methyl-1H-pyrazol-4-yl)-3-(thiazol-5-yl)thieno[3,2-b]pyridine]
IC50 [1]: 0.1 to 0.499 µM | IC50 [2]: 0.1 to 0.499 µM | IC50 [3]: 0.02 to 0.099 µM | IC50 [4]: 0.1 to 0.499 µM
